In US20160264593A1 (priority 2013, published 2016):

Key:
human cancer cell lines = test: IC50 for a broad spectrum of human cancer cell lines; type: cell-based
[1] = system: PP2A in circulating white blood cells; test: Inhibition of PP2A in circulating white blood cells after slow iv 100; type: in vivo; conditions: rat
[2] = Microsomal stability, rat microsomes; type: in vitro ADME; conditions: relative to verapamil
[3] = in vivo
[4] = Pharmacokinetic study of 157 (and metabolite endothal) in SD rats, iv and po; plasma, liver, brain; type: in vivo; conditions: for endothal detectable in brain samples: after single iv 157 at 1.5 mg/kg; for Cmax: female, rat, in vivo, iv
Procedure: The blood, liver and brain tissue samples were collected at predetermined times from rats. […] Compound were diluted shortly before use in 4% sodium bicarbonate for sterile injection (this is the standard pediatric solution of NaHCO3 with a pH of about 8.5).
Compound 153 was freshly prepared by diluting the drugs shortly before use in 4% sodium bicarbonate for sterile injection (this is the standard pediatric solution of NaHCO3 with a pH of about 8.5). The final concentrations of 153 solutions were 0.25 mg/mL. The 153 solutions were administered via iv or po route at dose volume of 5 ml/kg according to the latest body weight. Compound 157 was freshly prepared by diluting the drugs shortly before use in 4% sodium bicarbonate for sterile injection (this is the standard pediatric solution of NaHCO3 with a pH of about 8.5). The final concentrations of […] solutions were 0.3 mg/mL. The 157 solutions were administered via iv or po route at dose volume of 5 ml/kg according to the latest body weight.
Twelve (12) female SD rats per group were dosed by iv with 153 or 157. The rats were fasted overnight prior to dosing, with free access to water. Foods were withheld for 2 hours post-dose. Blood, liver and brain tissue samples in two animals each group were collected at each time point, within 10% of the scheduled time for each time point. Two extra animals were used for analytic method development.
Blood (>0.3 mL) were collected via aorta abdominalis in anaesthetic animals into tubes containing heparin at 15 min, 1, 2, 6, 10 and 24 hours after iv administration. Liver and brain tissues were collected immediately after animal death. The liver and brain tissues were excised and rinsed with cold saline to avoid blood residual. Upon collection, each sample was placed on ice and the blood samples were subsequently centrifuged (4° C., 11000 rpm, 5 min) to separate plasma. The obtained plasma, liver and brain tissue samples were stored at −70° C. until LC-MS/MS analysis.
Two (2) female SD rats per group were dosed by po with 153 or 157. The rats were fasted overnight prior to dosing, with free access to water. Foods were withheld for 2 hours post-dose. Blood samples (>0.3 mL) were collected via aorta abdominalis in anaesthetic animals into tubes containing heparin at 30 min, 1, 2, 6, 10 and 24 hours after po administration.
To each sample, 30 μL IS-D (for blank samples, 20 μL acetonitrile:water (1:1) was added) and 300 μl acetonitrile was added. The sample mixture was vortexed for approximately 3 min. After centrifugation at 10000 rpm for 5 min at 4° C., 100 μL of the upper layer was transferred to a new tube and added 200 μL 0.4% formic acid in water (pH6.0). The mixture was vortexed for approximately 3 min before injected onto the LC/MS/MS system for analysis.
On the day of the assay, the frozen liver and brain samples were thawed unassisted at room temperature. An about 200 mg weighed sample of each thawed tissue was placed into a plastic tube with water (0.6 mL) to facilitate homogenization. Tissue processing was conducted using a homogenizer for approximately 1 min, 100 μl homogenate was transferred into a fresh Eppendorf tube. To each tube, 50 μL IS-D was added and mixed. Then 500 μl acetonitrile was added and the sample mixture was vortexed for approximately 3 min. After centrifugation at 10000 rpm for 5 min at 4° C., 100 μL of the upper layer was transferred to a new tube and evaporate the supernatant to dryness at 35° C. Reconstitute the residue with 200 μL of 0.4% formic acid in water (pH 6.0), and vortex for 3 min, submit for LC-MS/MS analysis.
Frozen unknown plasma samples were completely thawed at room temperature and vortexed thoroughly. With a pipette, 50 μL of plasma was transferred into a 2.0 mL Eppendorf tube. 50 μL of 0.1N HCl and 800 μL ethyl acetate were added into each sample. The sample mixture was vortexed for approximately 3 min.

| SMILES | IC50 (human cancer cell lines) [µM] | inhibition of PP2A in circulating white blood cells ([1]; 100 slow iv 0.375 mg/kg) [%] | inhibition of PP2A in circulating white blood cells ([1]; 100 slow iv 0.75 mg/kg) [%] | inhibition of PP2A in circulating white blood cells ([1]; 100 slow iv 1.5 mg/kg) [%] | stability in the presence of microsomes [2] | passage of the blood brain barrier (BBB) (statement) [3] | Endothal plasma concentration ([4]; after iv 157, 10 hr, Rat 1) | Endothal plasma concentration ([4]; after iv 157, 10 hr, Rat 2) | Endothal plasma concentration ([4]; after iv 157, 24 hr, Rat 1) | Endothal plasma concentration ([4]; after iv 157, 24 hr, Rat 2) | Endothal plasma concentration ([4]; after po 157, 10 hr, Rat 1) | Endothal plasma concentration ([4]; after po 157, 10 hr, Rat 2) | endothal detectable in brain samples ([4]; 1.5 mg/kg) | endothal detectable in brain samples ([4]; listed as endothal, 1.5 mg/kg) | Cmax ([4]; SD, 1.5 mg/kg) [ng/g] | Cmax ([4]; Sprague-Dawley (SD)) [ng/g] |
| --- | --- | --- | --- | --- | --- | --- | --- | --- | --- | --- | --- | --- | --- | --- | --- | --- |
| CN1CCN(C(=O)C2C3CCC(O3)C2C(=O)O)CC1 (stereo not shown) [Compound 100, 3-(4-methylpiperazine-1-carbonyl)-7-oxa-bicyclo[2,2,1]-heptane-2-carboxylic acid] | 1 to 3 | 9 | 15 | 25 | stable relative to verapamil | does not readily pass the blood brain barrier |  |  |  |  |  |  |  |  |  |  |
| O=C(O)C1C2CCC(O2)C1C(=O)O (stereo not shown) [Endothal, 7-oxabicyclo[2.2.1]heptane-2,3-dicarboxylic acid] |  |  |  |  |  |  | BLQ | BLQ | BLQ | BLQ | BLQ | BLQ | undetectable | not detectable | 3720 | 3720 |
